Like-named read-outs stand apart in the source and are kept apart here. Each block holds one compound with its values, some of them ahead of it.
How the values were obtained:
human MAGL = target: T1, human MAGL (Homo sapiens, UniProt Q99685); experiment: MAGL inhibition potency assay with 4-nitrophenyl acetate (4NPA) substrate, absorbance 405 nm; type: biochemical; details: read-out: MAGL Potency (Detection Method)
T1 construct: recombinant MAGL enzyme (aa 2-303 RBC, internal preparation)
T1 sequence (Q99685 2-303): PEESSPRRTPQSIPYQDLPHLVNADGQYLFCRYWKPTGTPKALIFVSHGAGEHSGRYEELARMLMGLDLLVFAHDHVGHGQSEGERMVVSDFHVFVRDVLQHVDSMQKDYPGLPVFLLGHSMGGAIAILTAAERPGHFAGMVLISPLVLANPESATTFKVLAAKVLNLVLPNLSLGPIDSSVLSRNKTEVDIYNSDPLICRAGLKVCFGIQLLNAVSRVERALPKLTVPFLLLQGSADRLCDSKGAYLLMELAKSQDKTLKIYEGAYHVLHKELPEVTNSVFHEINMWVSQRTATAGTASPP
Excerpt: Example 22: Measuring MAGL Inhibition Potency (IC50) The potency of certain compounds for inhibiting MAGL were obtained using the following assays. The monoacylglycerol lipase inhibitor screening assay kit from Cayman Chemical was used to measure the MAGL potency for the compounds in Table 6 and Table 7. Cayman's Monoacylglycerol Lipase Inhibitor Screening Assay provides a method for screening human MAGL inhibitors. MAGL hydrolyzes 4-nitrophenylacetate resulting in a yellow product, 4-nitrophenol, with an absorbance of 405-412 nm. MAGL Inhibition was measured by the following assay. Monoacylglycerol Lipase (MAGL) inhibition was measured using recombinant MAGL enzyme (aa 2-303 RBC, internal preparation) and the substrate 4-Nitrophenyl acetate (4NPA) (Sigma-Aldrich, N8130). Hydrolysis of the substrate in the presence of the enzyme was measured by absorbance at 405 nm. 10 μL of assay buffer (10 mM Tris pH 7.5, 1 mM EDTA, 0.9% DMSO) was added to a black 384-well non-binding plate with clear bottom (Greiner, 781906) for each reaction. […] DMSO control wells were included for reference. A 10.8 nM (1.8×) MAGL mix in assay buffer was prepared, with 25 μL added to each reaction well, for a final assay concentration of 6 nM. No enzyme wells received 25 μL of buffer. Plate was incubated at room temperature for 30 minutes. 35 mM solution of 4NPA in methanol was prepared daily. A 4.5×4NPA substrate solution was prepared in assay buffer and 10 μL was added to each reaction well, for a final assay concentration of 0.25 mM. Plate was spun for […] at 100 rpm before measuring absorbance using a CLARIOstar plate reader (BMG Labtech). A kinetic reading at 405 nm was done every minute for 30 minutes. Data was analyzed using the linear slope of the reaction progress curve and the average of the no-enzyme wells (background) was subtracted from the data. The background-subtracted slope data was converted to % activity using the average of wells with enzyme and DMSO vehicle. IC50 were calculated using GraphPad software (Sigmoidal dose response, variable slope equation). […] Table S provides potency measurements of MAGL inhibition measured using the Potency Assay of Example 22 above, with the following modifications described in Table C. [table]

[1] = Pharmacokinetic study of compounds in mice (brain exposure); type: in vivo, male C57BL/6 mice; details: oral; for AUC(0-t) / Cmax: male, C57BL/6, mouse, 5 mg/kg, Protocols B-E
Method: Example 25: Pharmacokinetic Study of Compounds in Mice
Healthy male C57BL/6 mice (8-12 weeks old) weighing between 17 to 35 g were procured from Global, India. Temperature and humidity were maintained at 22±3° C. and 30-70%, respectively and illumination was controlled to give a sequence of 12 hr light and 12 hr dark cycle. Temperature and humidity were recorded by auto-controlled data logger system. All the animals were provided laboratory rodent diet. Reverse osmosis water treated with ultraviolet light was provided ad libitum.
Protocol A: Twenty-four male mice were divided into two groups as; Group 1: 30 mg/kg/IP; Plasma and brain; Number of animals=12; Animal #1-12. Group 2: 30 mg/kg/PO; Plasma and brain; Number of animals=12; Animal #13-24. Animals in Group 1 were administered intraperitoneally with solution formulation of PSY-05-00074-001 in 5% NMP, 5% Solutol HS-15 and 90% normal saline at […] dose. Animals in Group 2 were administered orally with solution formulation of PSY-05-00074-001 in 5% NMP, 5% Solutol HS-15 and 90% normal saline at 30 mg/kg dose. Blood samples (approximately 60 μL) were collected under light isoflurane anesthesia from retro orbital plexus at 0.25, 0.5, 1, 2, 4 and 8 hr (IP and PO). Plasma samples were separated by centrifugation of whole blood and stored below −70° C. until bioanalysis. Immediately after collection of blood from intraperitoneal and oral group animals, animals were euthanized with excess CO2 and brain samples were collected from set of two mice at each time point. Brain samples were divided into two parts. Half brain samples were homogenized using ice-cold phosphate buffer saline (pH-7.4) and homogenates were stored below −70±10° C. until analysis. Total homogenate volume was three times the brain weight. Other part of brain was stored below −70±10° C. for further analysis. All samples were processed for analysis by protein precipitation using acetonitrile and analyzed with fit-for-purpose LC/MS/MS method (LLOQ-2.02 ng/mL for plasma and 6.06 ng/g for brain). Pharmacokinetic parameters were calculated using the non-compartmental analysis tool of Phoenix WinNonlin®.
Protocol B: Thirty six mice were included into the study and divided in to three groups as Group 1 (n=12), Group 2 (n=12) and Group 3 (n=12) with n=2 mice per time-point design. Animals in Group 1 were administered intravenously with solution formulation of PSY-05-00414-001 at 5 mg/kg dose. Animals in Group 2 were administered orally with solution formulation of PSY-05-00414-001 at a dose of 5 mg/kg. Animals in Group 3 were administered intraperitoneally with solution formulation of PSY-05-00414-001 at 5 mg/kg dose. The formulation vehicle for all the three groups was 5% NMP, 5% Solutol HS-15 and 90% normal saline. Blood samples (approximately 60 μL) were collected under light isoflurane anesthesia from two mice at 0.25, 0.5, 1, 2, 4 and 8 h. Plasma was harvested by centrifugation of blood and stored at −70±10° C. until analysis. After blood collection, brain was perfused and isolated at 0.25, 0.5, 1, 2, 4 and 8 h. Brain samples were dipped thrice in ice-cold phosphate buffer saline, blotted dry and cut in to two equal portion. Half-brain samples from each time-point were weighed and homogenized using ice-cold phosphate buffer saline with twice volume of brain weight making the total homogenate three volumes and stored below −70±10′° C. until analysis. Remaining half-portions of brain samples was snap freeze and kept in −70±10° C. until further confirmation from client. Plasma and brain samples were quantified by fit-for-purpose LC-MS/MS method (LLOQ: 1.01 ng/mL for plasma and 2.02 ng/mL for brain).
Protocol C: Fifty four male mice were included in study and divided in to three groups as Group 1 (n=18), Group 2 (n=18) and Group 3 (n=18) with 3 mice/time point design. […]

[2] = Method 12: Reaction Biology MAGL enzyme prep, 15 nM enzyme
[3] = Method 13: Reaction Biology MAGL enzyme prep, 12 nM enzyme

IC50 (human MAGL; [2]): 50 to 150 nM
SMILES: O=C(c1cc(O)ccc1F)N1CC2(CC(n3nccc3-c3ccccc3C(F)(F)F)C2)C1 (single isomer, unassigned) [Compound 526, (2-fluoro-5-hydroxyphenyl)(6-(5-(2-(trifluoromethyl)phenyl)-1H-pyrazol-1-yl)-2-azaspiro [3.3]heptan-2-yl)methanone]

SMILES: Cc1cnn(C2CC3(C2)CN(C(=O)c2cc(O)ccc2F)C3)c1-c1cc(F)ccc1F (single isomer, unassigned) [Compound 476, (6-(5-(2,5-Difluorophenyl)-4-methyl-1H-pyrazol-1-yl)-2-azaspiro [3.3]heptan-2-yl) (2-fluoro-5-hydroxyphenyl) methanone]
AUC(0-t) [1]: 224 ng·h/mL
Cmax [1]: 72 ng/g

IC50 (human MAGL; Method 14: Reaction Biology MAGL enzyme prep, 6 nM enzyme (Conc "0", Source "0")): 50 to 150 nM
SMILES: Cc1ccccc1-n1nccc1C1CC2(C1)CN(C(=O)c1cc(O)ccc1F)C2 [Compound 367, (2-fluoro-5-hydroxyphenyl) (6-(1-(o-tolyl)-1H-pyrazol-5-yl)-2-azaspiro [3.3]heptan-2-yl) methanone]

IC50 (human MAGL; [2]): 50 to 150 nM
SMILES: O=C(c1cc(O)ccc1F)N1CC2(CC(n3ncc(C4CC4)c3-c3ccccc3F)C2)C1 (single isomer, unassigned) [Compound 492, (6-(4-Cyclopropyl-5-(2-fluorophenyl)-1H-pyrazol-1-yl)-2-azaspiro [3.3]heptan-2-yl) (2-fluoro-5-hydroxyphenyl) methanone]

IC50 (human MAGL; [3]): < 50 nM
SMILES: Cc1ccc(F)cc1-c1cc(C2CC2)n(C2CC3(C2)CN(C(=O)c2cc(O)ccc2F)C3)n1 (single isomer, unassigned) [Compound 491, (6-(5-cyclopropyl-3-(5-fluoro-2-methylphenyl)-1H-pyrazol-1-yl)-2-azaspiro [3.3]heptan-2-yl)(2-fluoro-5-hydroxyphenyl)methanone]

IC50 (human MAGL; Method 6: Reaction Biology MAGL enzyme prep, 6 nM enzyme): 50 to 150 nM
AUC(0-t) [1]: 1200 ng·h/mL
Cmax [1]: 271 ng/g
SMILES: O=C(c1ccc(F)cc1OC1CC1)N1CC2(CC(n3nc(-c4ccccc4C(F)(F)F)cc3C(F)(F)F)C2)C1 (single isomer, unassigned) [Compound 451, (2-cyclopropoxy-4-fluorophenyl)(6-{5-(trifluoromethyl)-3-[o-(trifluoromethyl)phenyl]-1-pyrazolyl}-2-aza-2-spiro[3.3]heptyl)methanone]

IC50 (human MAGL; [3]): 50 to 150 nM
SMILES: Cc1ccc(F)cc1-c1cc(C2CC2)nn1C1CC2(C1)CN(C(=O)c1cc(O)ccc1F)C2 (single isomer, unassigned) [Compound 490, (6-(3-cyclopropyl-5-(5-fluoro-2-methylphenyl)-1H-pyrazol-1-yl)-2-azaspiro [3.3]heptan-2-yl) (2-fluoro-5-hydroxyphenyl) methanone]

SMILES: Cc1cc(C2CC3(C2)CN(C(=O)c2cc(O)ccc2F)C3)n(-c2ccccc2C)n1 [Compound 74, (2-fluoro-5-hydroxyphenyl)(6-(3-methyl-1-(o-tolyl)-1H-pyrazol-5-yl)-2-azaspiro[3.3]heptan-2-yl)methanone]
AUClast ([1]; 30 mg/kg, Protocol A): 116.52 ng·h/mL

IC50 (human MAGL; [2]): 500 to 1000 nM
SMILES: Cc1ccc(F)cc1-n1nc(C2CC3(C2)CN(C(=O)c2ccc(F)cc2OC2CC2)C3)cc1C (single isomer, unassigned) [Compound 482, (2-cyclopropoxy-4-fluorophenyl){6-[1-(5-fluoro-2-tolyl)-5-methyl-3-pyrazolyl]-2-aza-2-spiro[3.3]heptyl}methanone]

IC50 (human MAGL; [2]): 50 to 150 nM
SMILES: O=C(c1cc(O)ccc1F)N1CC2(CC(n3ncc(C(F)(F)F)c3-c3ccccc3F)C2)C1 (single isomer, unassigned) [Compound 472]

IC50 (human MAGL; [2]): 150 to 500 nM
SMILES: Cc1ccc(F)c(-c2c(C(F)(F)F)cnn2C2CC3(C2)CN(C(=O)c2cc(O)ccc2F)C3)c1 (single isomer, unassigned) [Compound 474, (2-fluoro-5-hydroxyphenyl)(6-(5-(2-fluoro-5-methylphenyl)-4-(trifluoromethyl)-1H-pyrazol-1-yl)-2-azaspiro[3.3]heptan-2-yl)methanone]

IC50 (human MAGL; [2]): 50 to 150 nM
SMILES: Cc1cc(C2CC3(C2)CN(C(=O)c2ccc(F)cc2OC2CC2)C3)n(-c2cc(F)ccc2C)n1 (single isomer, unassigned) [Compound 418, (2-cyclopropoxy-4-fluorophenyl){6-[1-(5-fluoro-2-tolyl)-3-methyl-5-pyrazolyl]-2-aza-2-spiro[3.3]heptyl}methanone]

— US20250084065A1, “INHIBITING MONOACYLGLYCEROL LIPASE (MAGL)” (Psy Therapeutics, Inc., priority 2021, published 2025)
